Reference: patent US6632829B2, “Sulfonamides and derivatives thereof that modulate the activity of endothelin” (Texas Biotechnology Corp., priority 1996, dated 2003)
Values joined by “and” are separate entries in the source; they are usually repeats but may differ in a detail not shown here. Identical values can stand only once.

How the values were obtained:
[1] = target: T1, human ETB receptor (Homo sapiens, UniProt P24530); assay: Endothelin binding inhibition, Binding Test #2: competition with 125I-ET-1 for ETB receptors on transfected COS7 cell membranes
T1 construct: expressed in transfected cells; host or cells: COS7 cells
T1 sequence (P24530 27-442): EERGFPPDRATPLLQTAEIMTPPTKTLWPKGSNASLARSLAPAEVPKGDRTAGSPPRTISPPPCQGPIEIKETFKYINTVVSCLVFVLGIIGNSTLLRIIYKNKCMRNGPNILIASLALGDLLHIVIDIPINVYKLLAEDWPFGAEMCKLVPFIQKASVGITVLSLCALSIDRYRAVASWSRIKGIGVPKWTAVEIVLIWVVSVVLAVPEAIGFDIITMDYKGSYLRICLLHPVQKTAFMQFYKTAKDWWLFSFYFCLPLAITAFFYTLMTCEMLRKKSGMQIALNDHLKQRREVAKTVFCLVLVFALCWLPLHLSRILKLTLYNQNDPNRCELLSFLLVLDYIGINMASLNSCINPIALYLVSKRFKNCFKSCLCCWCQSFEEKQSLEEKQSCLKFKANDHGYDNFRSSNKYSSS
Outline: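 Membranes from COS7 cells transfected with human ETB receptor, prepared in HEPES pH 7.4 with aprotinin, MnCl2/DNase treatment at 37° C for 30 min. Test compounds compete with 125I-labeled ET-1 for receptor binding; membrane used at 1 μg/50 μL binding buffer.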

[2] = target: T2, human ETA receptors (Homo sapiens, UniProt P25101); assay: Endothelin binding inhibition, Binding Test #1: competition with 125I-ET-1 for ETA receptors on TE 671 cell membranes
T2 construct: endogenous in cells; host or cells: TE 671 cells (ATCC HTB 139), membrane preparation
T2 sequence (P25101 21-427): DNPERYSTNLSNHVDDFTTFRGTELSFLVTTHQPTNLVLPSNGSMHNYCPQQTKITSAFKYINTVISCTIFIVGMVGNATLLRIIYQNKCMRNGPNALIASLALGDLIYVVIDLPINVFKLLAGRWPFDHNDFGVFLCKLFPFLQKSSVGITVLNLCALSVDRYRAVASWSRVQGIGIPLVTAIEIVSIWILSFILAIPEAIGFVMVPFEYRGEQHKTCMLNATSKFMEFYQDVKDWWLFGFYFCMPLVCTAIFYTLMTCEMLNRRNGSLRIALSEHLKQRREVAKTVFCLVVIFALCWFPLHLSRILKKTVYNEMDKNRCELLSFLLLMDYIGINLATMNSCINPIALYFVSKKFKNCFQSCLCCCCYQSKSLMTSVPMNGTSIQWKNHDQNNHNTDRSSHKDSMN

[3] = incubation at 24° C. (values marked †)
[4] = incubation at 4° C. (values without †)

Row | Structure (SMILES) | IC50 [1, 3] | IC50 [2, 3] | IC50 [1, 4] | IC50 [2, 4] | inhibition at 100 µM ([1]; read-out: ETB % inhibition @ 100 μM, @ 100 μM, incubation at 24° C.)
1 | Cc1noc(NS(=O)(=O)c2ccsc2C(=O)NS(=O)(=O)c2cccc3c(N(C)C)cccc23)c1Br [N-(4-bromo-3-methyl-5-isoxazolyl)-2-[(5-dimethylamino-1-naphthyl)sulfonylaminocarbonyl]thiophene-3-sulfonamide] | 3.9 µM | 970 nM |  |  | 
2 | Cc1noc(NS(=O)(=O)c2ccsc2C(=O)N(C)c2ccccc2)c1Br [N-(4-bromo-3-methyl-5-isoxazolyl)-2-[(methyl)phenylaminocarbonyl]thiophene-3-sulfonamide] |  |  | 16 µM | 188 nM | 
3 | Cc1noc(NS(=O)(=O)c2ccsc2C/C=C/c2ccc3c(c2)OCO3)c1Br [N-(4-bromo-3-methyl-5-isoxazolyl)-2-[trans-(3,4-methylenedioxy)cinnamyl]thiophene-3-sulfonamide] | 1.4 µM | 140 nM |  |  | 
4 | CCCc1cc2c(cc1OC(=O)c1sccc1S(=O)(=O)Nc1onc(C)c1Br)OCO2 [N-(4-bromo-3-methyl-5-isoxazolyl)-2-{[2-propyl-4,5-(methylenedioxy)phenoxy]carbonyl}thiophene-3-sulfonamide] | 11.9 µM | 138 nM |  |  | 
5 | CCCc1cc2c(cc1OCc1sccc1S(=O)(=O)Nc1onc(C)c1Br)OCO2 [N-(4-bromo-3-methyl-5-isoxazolyl)-2-{[4,5-(methylenedioxy)-2-propylphenoxy]methyl}thiophene-3-sulfonamide] | 0.407 µM | 107 nM |  |  | 
6 | Cc1cc(C)c(C=CCc2ccsc2S(=O)(=O)Nc2onc(C)c2Br)c(C)c1 [N-(4-bromo-3-methyl-5-isoxazolyl)-3-(2,4,6-trimethylcinnamyl)thiophene-2-sulfonamide] | 1.86 µM | 49 nM |  |  | 
7 | Cc1cc(C)c(CCc2ccsc2S(=O)(=O)Nc2onc(C)c2Br)c(C)c1 [N-(4-bromo-3-methyl-5-isoxazolyl)-3-(2,4,6-trimethylphenethyl)thiophene-2-sulfonamide] | 1.62 µM | 55 nM |  |  | 
8 | Cc1ccc(C=CCc2ccsc2S(=O)(=O)Nc2onc(C)c2Br)c(C)c1 [N-(4-bromo-3-methyl-5-isoxazolyl)-3-(2,4-dimethylcinnamyl)thiophene-2-sulfonamide] | 2.97 µM | 180 nM |  |  | 
9 | Cc1ccc(CCc2ccsc2S(=O)(=O)Nc2onc(C)c2Br)c(C)c1 [N-(4-bromo-3-methyl-5-isoxazolyl)-3-(2,4-dimethylphenethyl)thiophene-2-sulfonamide] | 4.3 µM | 101 nM |  |  | 
10 | Cc1ccc(-c2ccsc2S(=O)(=O)Nc2onc(C)c2Br)c(C)c1 [N-(4-bromo-3-methyl-5-isoxazolyl)-3-(2,4-dimethylphenyl)thiophene-2-sulfonamide] | 60.3 µM | 100 nM |  |  | 
11 | COc1ccccc1-c1ccsc1S(=O)(=O)Nc1onc(C)c1Br [N-(4-bromo-3-methyl-5-isoxazolyl)-3-(2-methoxyphenyl)thiophene-2-sulfonamide] | 59.1 µM | 1710 nM |  |  | 
12 | CCCc1ccc(-c2ccsc2S(=O)(=O)Nc2onc(C)c2Br)c(C)c1 [N-(4-bromo-3-methyl-5-isoxazolyl)-3-(2-methyl-4-propylphenyl)thiophene-2-sulfonamide] | 3.63 µM | 46.8 nM |  |  | 
13 | Cc1ccccc1-c1ccsc1S(=O)(=O)Nc1onc(C)c1Br [N-(4-bromo-3-methyl-5-isoxazolyl)-3-(2-tolyl)thiophene-2-sulfonamide] | 55.1 µM | 324 nM and 302 nM |  |  | 31%
14 | Cc1cccc(-c2ccsc2S(=O)(=O)Nc2onc(C)c2Br)c1 [N-(4-bromo-3-methyl-5-isoxazolyl)-3-(3-tolyl)thiophene-2-sulfonamide] | 21.2 µM | 832 nM |  |  | 
15 | CCCCc1ccc(-c2ccsc2S(=O)(=O)Nc2onc(C)c2Br)cc1 [N-(4-bromo-3-methyl-5-isoxazolyl)-3-(4-butylphenyl)thiophene-2-sulfonamide] | 6.11 µM |  |  | 160 nM | 
16 | CCc1ccc(-c2ccsc2S(=O)(=O)Nc2onc(C)c2Br)cc1 [N-(4-bromo-3-methyl-5-isoxazolyl)-3-(4-ethylphenyl)thiophene-2-sulfonamide] | 43.9 µM |  |  | 184 nM | 
17 | Cc1cc(CC(C)C)ccc1-c1ccsc1S(=O)(=O)Nc1onc(C)c1Br [N-(4-bromo-3-methyl-5-isoxazolyl)-3-(4-iso-butyl-2-methylphenyl)thiophene-2-sulfonamide] | 1.66 µM | 46.8 nM |  |  | 

Row | Structure (SMILES) | IC50 [1, 3] | IC50 [2, 3] | IC50 [1, 4] | IC50 [2, 4] | inhibition at 100 µM ([1]; read-out: ETB % inhibition @ 100 μM, @ 100 μM, incubation at 24° C.)
18 | Cc1noc(NS(=O)(=O)c2sccc2-c2ccc(CC(C)C)cc2)c1Br [N-(4-bromo-3-methyl-5-isoxazolyl)-3-(4-iso-butylphenyl)thiophene-2-sulfonamide] | 2.76 µM | 82.3 nM |  |  | 
19 | Cc1cc(CCC(C)C)ccc1-c1ccsc1S(=O)(=O)Nc1onc(C)c1Br [N-(4-bromo-3-methyl-5-isoxazolyl)-3-(4-iso-pentyl-2-methylphenyl)thiophene-2-sulfonamide] | 2.4 µM | 107 nM |  |  | 
20 | Cc1noc(NS(=O)(=O)c2sccc2-c2ccc(CCC(C)C)cc2)c1Br [N-(4-bromo-3-methyl-5-isoxazolyl)-3-(4-iso-pentylphenyl)thiophene-2-sulfonamide] | 3.31 µM | 155 nM |  |  | 
21 | Cc1noc(NS(=O)(=O)c2sccc2-c2ccc(C(C)C)cc2)c1Br [N-(4-bromo-3-methyl-5-isoxazolyl)-3-(4-iso-propylphenyl)thiophene-2-sulfonamide] | 28.3 µM |  |  | 218 nM | 
22 | Cc1ccc(/C=C/c2ccsc2S(=O)(=O)Nc2onc(C)c2Br)cc1 [N-(4-bromo-3-methyl-5-isoxazolyl)-3-(4-methyl-trans-styryl)thiophene-2-sulfonamide] | 0.66 µM | 940 nM |  |  | 
23 | Cc1ccc(CCc2ccsc2S(=O)(=O)Nc2onc(C)c2Br)cc1 [N-(4-bromo-3-methyl-5-isoxazolyl)-3-(4-methylphenethyl)thiophene-2-sulfonamide] | 9.4 µM | 347 nM |  |  | 
24 | CCCc1ccc(-c2ccsc2S(=O)(=O)Nc2onc(C)c2Br)cc1 [N-(4-bromo-3-methyl-5-isoxazolyl)-3-(4-propylphenyl)thiophene-2-sulfonamide] | 8.48 µM |  |  | 87.3 nM | 
25 | Cc1noc(NS(=O)(=O)c2sccc2CC=Cc2cc3c(cc2CO)OCO3)c1Br [N-(4-bromo-3-methyl-5-isoxazolyl)-3-[2-(hydroxymethyl)-4,5-(methylenedioxy)cinnamyl]thiophene-2-sulfonamide] | 3.24 µM | 79.5 nM |  |  | 
26 | Cc1cc2c(cc1C=CCc1ccsc1S(=O)(=O)Nc1onc(C)c1Br)OCO2 [N-(4-bromo-3-methyl-5-isoxazolyl)-3-[2-methyl-4,5-(methylenedioxy)cinnamyl]thiophene-2-sulfonamide] | ~6 µM | ~100 nM |  |  | 
27 | Cc1cc2c(cc1CCc1ccsc1S(=O)(=O)Nc1onc(C)c1Br)OCO2 [N-(4-bromo-3-methyl-5-isoxazolyl)-3-[2-methyl-4,5-(methylenedioxy)phenethyl]thiophene-2-sulfonamide] | ~5 µM | ~100 nM |  |  | 
28 | Cc1cc(C)c(OCc2ccsc2S(=O)(=O)Nc2onc(C)c2Br)c(C)c1 [N-(4-bromo-3-methyl-5-isoxazolyl)-3-[(2,4,6-trimethylphenoxy)methyl]thiophene-2-sulfonamide] | 4.68 µM | 45.7 nM |  |  | 
29 | Cc1ccc(OCc2ccsc2S(=O)(=O)Nc2onc(C)c2Br)c(C)c1 [N-(4-bromo-3-methyl-5-isoxazolyl)-3-[(2,4-dimethylphenoxy)methyl]thiophene-2-sulfonamide] | 7.45 µM | 346 nM |  |  | 
30 | Cc1noc(NS(=O)(=O)c2sccc2Cc2ccc3c(c2)OCO3)c1Br [N-(4-bromo-3-methyl-5-isoxazolyl)-3-[(3,4-methylenedioxy)benzyl]thiophene-2-sulfonamide] | 3.2 µM | 8100 nM |  |  | 
31 | Cc1noc(NS(=O)(=O)c2sccc2-c2ccc3c(c2)OCO3)c1Br [N-(4-bromo-3-methyl-5-isoxazolyl)-3-[(3,4-methylenedioxy)phenyl]thiophene-2-sulfonamide] | 79 µM | 500 nM |  |  | 
32 | Cc1ccc(OCc2ccsc2S(=O)(=O)Nc2onc(C)c2Br)cc1 [N-(4-bromo-3-methyl-5-isoxazolyl)-3-[(4-methylphenoxy)methyl]thiophene-2-sulfonamide] | 22.8 µM | 1640 nM |  |  | 
33 | Cc1noc(NS(=O)(=O)c2sccc2Cc2ccccc2)c1Br [N-(4-bromo-3-methyl-5-isoxazolyl)-3-benzylthiophene-2-sulfonamide] | 39 µM | 1600 nM |  |  | 
